Test system: Aspergillus niger DSMZ 737
Test: Minimum Inhibition Concentration (MIC) test in YG broth cell culture plates
Format: cell-based
Conditions: substance alone, 3 days at 30° C., no visible growth of mycelium
Method: Further tests have been conducted to establish synergistic activity of the antimycotic cocktails of the present invention. These tests are based on determination of the Minimum Inhibition Concentration (MIC).
For the tests, cell culture plates with YG broth as a base were used. Test samples were inoculated with a conidial suspension of Aspergillus niger DSMZ 737 and incubated for 3 days at 30° C. The targeted spore count was at approximately 10^5 spores/ml. As Minimal Inhibition Concentration (MIC) the concentration of active ingredient with no visible growth of mycelium in the cavity was defined. In addition, results were confirmed microscopically and in a culture on YGC plates.
To dissolve the different mixtures, one of the following media was used as appropriate: distilled water; distilled water+0.5% Tween 80; distilled water+0.4% Lecithine.

Molecule | Minimum Inhibition Concentration (MIC) | MIC (Aspergillus niger, DSMZ737, 72 h) [µg/mL]
cinnamon aldehyde | 200 ppm | 
CCCCCCCC(=O)O [caprylic acid] |  | 2000
O=C(O)CC(O)C(=O)O (stereo not drawn) [malic acid] | no MIC | 

Source: patent US20120282356A1, “COMPOSITIONS FOR PREVENTION AGAINST SPOILAGE BY MOULDS AND YEASTS AND USES AND PRODUCTS RELATED THERETO” (MARS INCORPORATED, priority 2009, published 2012)
